In the experiment the test system is P388 leukemia ip, CD2F1 mice, survival T/C. In words: NCI In Vivo Anticancer Drug Screen. Data for tumor model P388 Leukemia (intraperitoneal) in CD2F1 (CDF1) mice. As to conditions: endpoint: median survival time, higher = longer survival. A digest of the protocol:
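Mice carrying the transplanted tumor received test compound or vehicle. Survival was recorded in each group, and the value is the treated-group measurement divided by that of the vehicle-treated control group.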

Where [1] appears, read: dose: 60.0 mg/kg/injection, schedule: Q01DX005 (ip), vehicle: saline with Tween-80.
[2] abbreviates: dose: 120.0 mg/kg/injection, schedule: Q01DX005 (ip), vehicle: saline with Tween-80.
Where [3] appears, read: dose: 100.0 mg/kg/injection, schedule: Q01DX009 (ip), vehicle: saline with Tween-80.
Where [4] appears, read: dose: 6.25 mg/kg/injection, schedule: Q01DX005 (ip), vehicle: Klucel (hydroxypropylcellulose) (HPC).
The mark [5] stands for this setting: dose: 50.0 mg/kg/injection, schedule: Q01DX005 (ip), vehicle: Klucel (hydroxypropylcellulose) (HPC).
Where [6] appears, read: dose: 100.0 mg/kg/injection, schedule: Q01DX005 (ip), vehicle: Klucel (hydroxypropylcellulose) (HPC).
Setting [7] is: dose: 12.5 mg/kg/injection, schedule: Q01DX005 (ip), vehicle: Klucel (hydroxypropylcellulose) (HPC).
Setting [8] is: dose: 25.0 mg/kg/injection, schedule: Q01DX005 (ip), vehicle: Klucel (hydroxypropylcellulose) (HPC).

The values that follow come from PubChem BioAssay AID330 (DTP/NCI, 2004).

Values joined by “and” are separate entries in the source; they are usually repeats but may differ in a detail not shown here. Identical values can stand only once. Inconclusive results and toxic doses are left out. Square brackets hold non-standard residues; d marks the D form. Peptide text beside a SMILES is read from it. * marks the point of attachment. Cbz = O=C(OCc1ccccc1)*; Nva = CCC[CH](N)C(=O)O

`CC(C)(C)C1=CC(=CC=C2C=CN(CCCCCCCCCCCO)C=C2)C=C(C(C)(C)C)C1=O`: the T/C under setting [1] was 108 % of control; the T/C under setting [2] was 107 % of control; the T/C (dose: 240.0 mg/kg/injection, schedule: Q01DX005 (ip), vehicle: saline with Tween-80) is 110 % of control.

Turning to `CC1=CC(=O)C(O)C2(C)C1CC1OC(=O)C(O)C3(O)C4(C)OCC13C2C(O)C4O` (centres undefined), the T/C reads like this: (dose: 0.19 mg/kg/injection, schedule: Q01DX009 (ip), vehicle: saline + alcohol) 102 % of control; (dose: 0.38 mg/kg/injection, schedule: Q01DX009 (ip), vehicle: saline + alcohol) 105 % of control; (dose: 0.75 mg/kg/injection, schedule: Q01DX009 (ip), vehicle: saline + alcohol) 119 % of control; (dose: 1.5 mg/kg/injection, schedule: Q01DX009 (ip), vehicle: saline + alcohol) 105 % of control and 112 % of control.

`Nc1nc(-c2ccc(F)cc2)cc(-c2cc(-c3ccc(F)cc3)nc(N)n2)n1`: the T/C is 100 % of control (dose: 60.0 mg/kg/injection, schedule: Q01DX005 (ip), vehicle: saline); 105 % of control (dose: 120.0 mg/kg/injection, schedule: Q01DX005 (ip), vehicle: saline); 102 % of control (dose: 240.0 mg/kg/injection, schedule: Q01DX005 (ip), vehicle: saline).

As to `COc1cc2c(cc1C(C)=O)C=CC(C)(C)O2`, the T/C is 100 % of control (dose: 22.5 mg/kg/injection, schedule: Q01DX005 (ip), vehicle: Klucel (hydroxypropylcellulose) (HPC)); 100 % of control (dose: 45.0 mg/kg/injection, schedule: Q01DX005 (ip), vehicle: Klucel (hydroxypropylcellulose) (HPC)); 94 % of control (dose: 90.0 mg/kg/injection, schedule: Q01DX005 (ip), vehicle: Klucel (hydroxypropylcellulose) (HPC)); 98 % of control (dose: 180.0 mg/kg/injection, schedule: Q01DX005 (ip), vehicle: Klucel (hydroxypropylcellulose) (HPC)).

As to `C=CC[P+](Cc1cccc(C)c1)(c1ccccc1)c1ccccc1`, the T/C runs as follows: (dose: 0.78 mg/kg/injection, schedule: Q01DX009 (ip), vehicle: saline) 99 % of control; (dose: 1.56 mg/kg/injection, schedule: Q01DX009 (ip), vehicle: saline) 111 % of control; (dose: 3.13 mg/kg/injection, schedule: Q01DX009 (ip), vehicle: saline) 104 % of control.

Turning to `COc1cccc2c1C(=O)c1c(O)c3c(c(O)c1C2=O)CC(O)(C(N)=O)CC3OC1CC(N)C(O)C(C)O1` (centres undefined), the T/C (dose: 0.39 mg/kg/injection, schedule: Q01DX009 (ip), vehicle: water) was 101 % of control and the T/C (dose: 6.25 mg/kg/injection, schedule: Q01DX009 (ip), vehicle: water) is 151 % of control.

As to `CSc1cccc2c(NCCCCCCCCNc3c4ccccc4nc4c(SC)cccc34)c3ccccc3nc12`, the T/C is, setting by setting: (dose: 0.32 mg/kg/injection, schedule: Q01DX009 (ip), vehicle: other) 101 % of control; (dose: 0.63 mg/kg/injection, schedule: Q01DX009 (ip), vehicle: other) 104 % of control; (dose: 1.25 mg/kg/injection, schedule: Q01DX009 (ip), vehicle: other) 113 % of control; (dose: 2.5 mg/kg/injection, schedule: Q01DX009 (ip), vehicle: other) 113 % of control; (dose: 5.0 mg/kg/injection, schedule: Q01DX009 (ip), vehicle: other) 109 % of control; (dose: 10.0 mg/kg/injection, schedule: Q01DX009 (ip), vehicle: other) 111 % of control.

As to `O=C1OC(c2ccc(Cl)c(Cl)c2)C(=O)C1=O` (centres undefined), the T/C is 86 % of control (dose: 3.75 mg/kg/injection, schedule: Q01DX005 (ip), vehicle: saline with Tween-80); 91 % of control (dose: 7.5 mg/kg/injection, schedule: Q01DX005 (ip), vehicle: saline with Tween-80); 92 % of control (dose: 15.0 mg/kg/injection, schedule: Q01DX005 (ip), vehicle: Klucel + Tween-80); 102 % of control (dose: 15.0 mg/kg/injection, schedule: Q01DX005 (ip), vehicle: saline with Tween-80).

Take `CN(C)c1ccc(CN2CCCN(Cc3ccc(N(C)C)cc3)C2c2cc(Cl)ccc2O)cc1`: the T/C under setting [3] was 95 % of control; the T/C (dose: 200.0 mg/kg/injection, schedule: Q01DX009 (ip), vehicle: saline with Tween-80) is 90 % of control; the T/C (dose: 400.0 mg/kg/injection, schedule: Q01DX009 (ip), vehicle: saline with Tween-80) was 90 % of control.

On to `CCN(CC)CCCSCCCNc1cc(OC)cc2cccnc12`, for which the T/C reads like this: (dose: 12.5 mg/kg/injection, schedule: Q01DX005 (ip), vehicle: saline) 105 % of control; (dose: 25.0 mg/kg/injection, schedule: Q01DX005 (ip), vehicle: saline) 100 % of control; (dose: 50.0 mg/kg/injection, schedule: Q01DX005 (ip), vehicle: saline) 99 % of control and 91 % of control.

On to `O=[N+]([O-])c1ccc(/C=N/O)s1`, for which the T/C (dose: 12.5 mg/kg/injection, schedule: Q01DX009 (ip), vehicle: Klucel (hydroxypropylcellulose) (HPC)) is 109 % of control; the T/C (dose: 25.0 mg/kg/injection, schedule: Q01DX009 (ip), vehicle: Klucel (hydroxypropylcellulose) (HPC)) is 101 % of control; the T/C (dose: 50.0 mg/kg/injection, schedule: Q01DX009 (ip), vehicle: Klucel (hydroxypropylcellulose) (HPC)) is 108 % of control.

Consider `[O-]c1ccccc1C=NCCN1CC1.[O-]c1ccccc1C=NCCN1CC1.[Zn+2]`, for which the T/C is 91 % of control (dose: 6.25 mg/kg/injection, schedule: Q01DX009 (ip), vehicle: saline with Tween-80); 97 % of control (dose: 12.5 mg/kg/injection, schedule: Q01DX009 (ip), vehicle: saline with Tween-80); 100 % of control (dose: 25.0 mg/kg/injection, schedule: Q01DX009 (ip), vehicle: saline with Tween-80).

In the case of `[CH3][Ga]([CH3])[n]1cccn1`, the T/C by setting is: (dose: 3.12 mg/kg/injection, schedule: Q01DX005 (ip), vehicle: Klucel (hydroxypropylcellulose) (HPC)) 100 % of control; under setting [4], 111 % of control.

`Nc1nc(=O)n(C2CC(O)C(CO)O2)cc1Br` (centres undefined): the T/C (dose: 100.0 mg/kg/injection, schedule: Q04DX003 (ip), vehicle: saline) was 91 % of control; the T/C (dose: 200.0 mg/kg/injection, schedule: Q04DX003 (ip), vehicle: saline) was 100 % of control; the T/C (dose: 400.0 mg/kg/injection, schedule: Q04DX003 (ip), vehicle: saline) was 104 % of control.

Turning to `CCCC(NC(=O)OCc1ccccc1)C(=O)NC(C(=O)O)C(C)C` (centres undefined) (Cbz-[Nva]-Val-OH; configuration not given here), the T/C is, setting by setting: under setting [5], 94 % of control; under setting [6], 92 % of control; (dose: 200.0 mg/kg/injection, schedule: Q01DX005 (ip), vehicle: Klucel (hydroxypropylcellulose) (HPC)) 96 % of control.

With `CCOc1ccc2c(N=[N+]=[N-])cc(C)nc2c1`, the T/C (dose: 30.0 mg/kg/injection, schedule: Q01DX005 (ip), vehicle: saline with Tween-80) was 94 % of control; the T/C under setting [1] was 103 % of control and 91 % of control; the T/C under setting [2] is 92 % of control.

Take `O=C(O)/C(Cl)=C(Cl)\C=N\c1ncn[nH]1`: the T/C was 104 % of control under setting [4], 100 % of control under setting [7] and 112 % of control under setting [8].

`CN1CCC(O)(c2ccc(Br)cc2)C(C(=O)c2ccc(Br)cc2)C1` (centres undefined): the T/C under setting [7] was 100 % of control; the T/C under setting [8] was 100 % of control; the T/C under setting [5] is 90 % of control and 91 % of control.

`NC(=S)N/N=C\Cn1cc([N+](=O)[O-])c(=O)[nH]c1=O`: the T/C was 101 % of control under setting [5] and 87 % of control under setting [6].

For `FC(F)(F)c1cccc(NC(=S)SCc2ccc(Cl)c(Cl)c2)c1`, the T/C (dose: 12.5 mg/kg/injection, schedule: Q01DX009 (ip), vehicle: saline) is 95 % of control; the T/C (dose: 25.0 mg/kg/injection, schedule: Q01DX009 (ip), vehicle: saline) is 89 % of control; the T/C (dose: 50.0 mg/kg/injection, schedule: Q01DX009 (ip), vehicle: saline) is 90 % of control; the T/C (dose: 50.0 mg/kg/injection, schedule: Q01DX009 (ip), vehicle: suspension in saline) was 89 % of control; the T/C (dose: 100.0 mg/kg/injection, schedule: Q01DX009 (ip), vehicle: saline) is 90 % of control; the T/C (dose: 200.0 mg/kg/injection, schedule: Q01DX009 (ip), vehicle: saline) was 100 % of control. Besides, where the note is “dose: 200.0 mg/kg/injection, schedule: Q01DX009 (ip), vehicle: suspension in saline”, the T/C is 97 % of control.

As to `O=C(C[N+](=O)[O-])c1ccc(Cl)cc1`, the T/C by setting is: (dose: 50.0 mg/kg/injection, schedule: Q01DX009 (ip), vehicle: saline with Tween-80) 87 % of control; under setting [3], 91 % of control.
